Experimental findings from publication PMC8153216 (Chemical Science, 2021) are described below.

In the series the test system is Coxsackievirus B3 (CVB3). In words: Anti Coxsackie B3 activity assay. It is filed as cell-based, Coxsackie viruse B3 (Nancy strain). As to conditions: CVB3 in Vero cells.

As for `Cc1cc(CCCOc2c(C)cc(-c3noc(C(F)(F)F)n3)cc2C)on1` [Pleconaril], the “SI (TC50/IC50)” value is reported as 14045.1.
As for `NC(=O)c1ncn([C@@H]2O[C@H](CO)[C@@H](O)[C@H]2O)n1` [Ribavirin], the figure is 5.2.
